Assay results from patent US20250345350A1, “TREATING PAIN ASSOCIATED WITH CENTRAL SENSITIZATION” (Medicon Pharmaceuticals, Inc., priority 2022, published 2025).
Where two headings read alike, the source gives them in different places.

Key:
[1] = PS and metabolites in proximal and distal half of the sciatic nerve (Example 25); assay type: in vivo, mouse; conditions: mice with paclitaxel-induced PN, PS 8% ointment 3x/d for 2 wks, 30 min after last dose; for concentration at 30 min: mouse, in vivo, 8 % PS ointment, 3×/d
Procedure: In a separate experiment we studied 8 mice with paclitaxel-induced PN treated with PS 8% ointment 3×/d for 2 wks. Mice were euthanized as above 30 minutes after the last dose of PS. From these mice we harvested both sciatic nerves dividing each into proximal and distal halves, and combined the corresponding halves of every two animals for assay of drug levels.

[2] = system: STZ-induced central sensitization in Sprague-Dawley rats; assay: PWT (von Frey), streptozotocin rat model of central sensitization (Example 4); assay type: in vivo; conditions: week 7; PS 8% hydrogel to both hind paws 3 times a day for 3 weeks from week 4 after STZ
Procedure: Sprague-Dawley rats were fasted for 4-6 hours before being injected intraperitoneally with 45 mg/kg STZ. This was performed for all experimental groups, except the naive group. In order to prevent hypoglycaemic death, rats received 10% sucrose water as the sole water source for the first 48 hours after injection. In order to ensure only those rats considered diabetic (i.e., having non-fasting plasma glucose levels of >250 mg/dL) were included in the study, blood glucose was measured at 72 hours after the STZ injection.
Four weeks after STZ injection, the rats were randomised into treatment groups. This delay between STZ injection and treatment allows the establishment of chronic pain (allodynia) associated with central sensitization. […] 5% lidocaine cream (positive control) was applied only once to both hind paws of the rats 30 minutes before measurement of PWT.
The rats were split into 8 study groups, with those in the experimental groups (1-4) having an average body weight of about 225 g, and those in the control groups (5-8) having an average body weight of about 335 g, as follows: • 1. Group 1: naive rats (n=5) • 2. Group 2: STZ only (n=6) • 3. Group 3: STZ plus vehicle (n=6) • 4. […] Group 5: STZ plus oral vehicle (n=8) • 6. Group 6: STZ plus 0.7% sulindac hydrogel (n=7) • 7. Group 7: STZ plus 5% lidocaine cream (n=8) • 8.

[3] = Pharmacokinetics and biodistribution after topical PS 8% ointment to hind paws (Example 25); assay type: in vivo, mouse; conditions: normal mice, topical PS 8% ointment to hind paws; for AUC(0-t) / Cmax / half-life: mouse, in vivo, topical or ocular, 50 μl per paw of PS 8% ointment; for AUC(0-t): read-out: AUC0-24 h; for Cmax: read-out: Cmax, mean ± SEM
Procedure: At 0.5, 1, 3, 5, 12, 18, and 24 h, mice (n=4-5 mice/time point) were euthanized with CO2 inhalation. Blood was drawn immediately after death. Tissues, including paw skin, paw muscle, leg muscle, the sciatic nerve and lumbar DRG bilaterally were dissected quickly, immediately frozen in liquid nitrogen and stored at −80° C. until analyzed.

[4] = system: paclitaxel-induced central sensitization in C57/BL/6J mice; conditions: day 14
Procedure: Regarding the treatment with lidocaine: 5% lidocaine cream (a positive control) was applied once to both hind paws of the mice 30 minutes before measurement of PWT.
Briefly, for mechanical allodynia, pain threshold responses were measured using the well-established method of von Frey filaments in line with that performed in the earlier Examples. The PWT test was performed on day-8 (before the first dose of paclitaxel), the day of starting treatment (day 0, at which central sensitization was fully established) and day 14 (treatment continued until day 15). The mechanical threshold, expressed as g, indicates the force of the von Frey filament to which the animal reacted.

[5] = system: NTG-induced chronic migraine in mice; assay: PWT (von Frey), NTG-induced chronic migraine model, oral (Example 16)
Procedure: In particular, mice receive sublingual NTG 0.4 mg in the form of a finely crushed 0.4 mg NTG tablet (Greenstone Brand) every two days, receiving a total of five doses. For control mice, an NTG placebo (Practi-Nitroglycerin Sublingual 0.4 mg Simulated Medication tablet) was administered in the same way.
Group 1: placebo NTG (i.e, no NTG treatment, n=8) • 2. Group 2: NTG (n=8) • 3. Group 3: NTG+vehicle (n=8) • 4. […] Group 5: NTG+sulindac (n=8)
Mechanical allodynia was determined using von Frey filaments in line with that performed in the earlier Examples. The PWT test was performed prior to NTG (or placebo NTG) administration to determine baseline values, as indicated. […] The mechanical threshold, expressed as g, indicates the force of the von Frey filament to which the animal reacted.

[6] = Pharmacokinetics and biodistribution after 3% PS gel on outer surface of eyelid (Example 26); assay type: in vivo, rabbit; conditions: male, New Zealand White, rabbit, rabbits, 3% PS gel on outer surface of upper eyelids; for Cmax / half-life / AUC(0-t): topical or ocular; for AUC(0-t): read-out: AUC0-24 h; for concentration at 0.5 h / concentration at 1 h / concentration at 2 h / concentration at 4 h / concentration at 8 h / concentration at 24 h: topical, read-out: Amount in tissue, Mean ± SEM
Procedure: The pharmacokinetics and biodistribution of 3% PS gel applied to the outer surface of both upper eyelids was studies in male New Zealand White rabbits.
Eyelid and tissues of the globe were dissected and frozen quickly in liquid nitrogen until the levels of PS and its metabolites were determined by HPLC as described Xie et al. (Br J Pharmacol (2012);165:2152-66).

[7] = system: PHN induced by HSV-1 KOS strain virus in BALB/c mice; assay: PWT (von Frey), HSV-1 mouse model of PHN, topical (Example 20); assay type: in vivo
Procedure: PHN was induced in mice by infecting them with the HSV-1 KOS strain virus and following established protocols (Ou et al, Front Immunol, 14, 1026269, 2023; Takasaki et al, Anesthesiology, 96(5), 1168-74, 2002).
; Reckitt Benckiser). Three days later, HSV-1 (10^6 PFUs in 20 μl PBS) was inoculated on the shin of the right hind paw (5×5 mm) after scarification with sandpaper. The virus was applied directly to the scarified area. The contralateral hind paw was without inoculation. Mock infection was performed using the same virus inactivated by heating at 60° C. for 1 h.
. Group 1: sham inoculated (n=5-7) • 2.
In a second experiment, the effect of the parent compound, sulindac, was tested in the same mouse model. Five days post-inoculation, sulindac (as a 5% gel), or vehicle control were administered topically onto both hind paws of mice three times a day for three days.
. Group 1: vehicle control (n=5-7) • 2. Group 2: sulindac 5% (n=5-7)

[8] = system: NTG-induced migraine in C57BL/6J mice; assay: PWT (von Frey), NTG-induced migraine mouse model, topical (Example 13)
Procedure: Specifically, instead of the intraperitoneal injection of NTG, a finely crushed 0.4 mg NTG tablet (Greenstone Brand) was administered sublingually. As a control, a Practi-Nitroglycerin Sublingual 0.4 mg Simulated Medication tablet was used.
For determining mechanical allodynia, pain threshold responses were measured using the well-established method of von Frey filaments in line with that performed in the earlier Examples.
The PWT test, assessing mechanical allodynia, was performed 30 minutes after treatment. The mechanical threshold, expressed as g, indicates the force of the von Frey filament to which the animal reacted.

## CCOP(=O)(OCC)OCCCCOC(=O)CC1=C(C)/C(=C/c2ccc([S+](C)[O-])cc2)c2ccc(F)cc21 (centres unmarked) [PS, phosphosulindac]
[1]
  Distal half of sciatic nerve, mean ± SEM: 17.0 ± 5.1 µM
  Proximal half of sciatic nerve, μM, mean ± SEM: 0.9 ± 0.3 µM
[1]; read-out: Distal half of sciatic nerve, mean ± SEM
  concentration at 30 min: 17 ± 5.1 µM
[1]; read-out: Proximal half of sciatic nerve, μM, mean ± SEM
  concentration at 30 min: 0.9 ± 0.3 µM
[2]
  PWT, gm Mean ± SEM: 22.5 ± 2.20 gm
[3]; DRG (dorsal root ganglia)
  AUC(0-t): 4.5 µM·h
  Cmax: 300 ± 100 nM
[3]; SN (sciatic nerve)
  half-life: 57.4 h
  AUC(0-t): 12 µM·h
  Cmax: 900 ± 100 nM
[3]; leg muscle
  half-life: 20.6 h
  AUC(0-t): 172 µM·h
  Cmax: 35000 ± 3600 nM
[3]; paw muscle
  half-life: 11.4 h
  AUC(0-t): 411 µM·h
  Cmax: 102000 ± 4600 nM
[3]; paw skin
  half-life: 16.1 h
  AUC(0-t): 1610 µM·h
  Cmax: 195000 ± 5300 nM
[3]
  detection in the systemic circulation: no PS was detected
[4]; PS 1.2% (equimolar to sulindac 0.7%) 3 times a day
  PWT, g Mean ± SEM: 0.98 ± 0.06 g
[4]; PS hydrogel 5% or 0.7% sulindac 3 times a day, 5% lidocaine cream once 30 min before, pregabalin 10 mg/kg orally once 1 h before
  PWT, g Mean ± SEM: 1.24 ± 0.07 g
[5]; Baseline, prior to NTG administration
  PWT, g Mean ± SEM: 2.28 ± 0.34 g
[5]; Day 11, orally once a day for 11 days concurrent with NTG, PS 50 mg/kg, sulindac 33 mg/kg
  PWT, g Mean ± SEM: 1.18 ± 0.10 g
[6]; conjunctiva
  Cmax: 5800 nM
  half-life: 5.7 h
  AUC(0-t): 58.6 ± 0.9 µM·h
  concentration at 0.5 h: 1300 ± 100 nM
  concentration at 1 h: 1800 ± 300 nM
  concentration at 2 h: 400 ± 100 nM
  concentration at 4 h: 6100 ± 3300 nM
  concentration at 8 h: 3400 ± 1400 nM
  concentration at 24 h: 500 ± 400 nM
[6]; cornea
  Cmax: 1800 nM
  half-life: 23 h
  AUC(0-t): 6.4 ± 0.4 µM·h
  concentration at 0.5 h: 1800 ± 900 nM
  concentration at 1 h: 1300 ± 200 nM
  concentration at 2 h: 1400 ± 100 nM
  concentration at 4 h: 500 ± 100 nM
  concentration at 8 h: 1100 ± 600 nM
  concentration at 24 h: 0 nM
[6]; eyelid
  Cmax: 14200 nM
  half-life: 14.4 h
  AUC(0-t): 45.2 ± 0.5 µM·h
  concentration at 0.5 h: 8300 ± 2200 nM
  concentration at 1 h: 14200 ± 5300 nM
  concentration at 2 h: 2000 ± 500 nM
  concentration at 4 h: 3500 ± 1900 nM
  concentration at 8 h: 200 ± 200 nM
  concentration at 24 h: 1800 ± 1300 nM
[6]; AH (aqueous humor)
  concentration at 0.5 h: 0 nM
  concentration at 1 h: 0 nM
  concentration at 2 h: 0 nM
  concentration at 4 h: 0 nM
  concentration at 8 h: 0 nM
  concentration at 24 h: 0 nM
[6]; vitreous
  concentration at 0.5 h: 0 nM
  concentration at 1 h: 0 nM
  concentration at 2 h: 0 nM
  concentration at 4 h: 0 nM
  concentration at 8 h: 0 nM
  concentration at 24 h: 0 nM
[7]; Post-inoculation, day 5 (before treatment)
  PWT, g Mean ± SEM: 0.53 ± 0.06 g
[7]; Post-treatment, PS 5% gel on both hind paws three times a day for three days
  PWT, g Mean ± SEM: 0.93 ± 0.06 g
[7]; Pre-inoculation
  PWT, g Mean ± SEM: 1.27 ± 0.19 g
[8]; 30 min after treatment, PS 8% gel or sulindac 5.3% (in DMSO) on both hind paws 30 min after NTG
  PWT Post-treatment Mean ± SEM: 1.00 ± 0.12 g
[8]; baseline of the group, before NTG and treatment
  PWT Baseline Mean ± SEM: 1.72 ± 0.10 g
